The assay deals with T1, S769N PfATP6 (Plasmodium falciparum, UniProt Q08853, S769N).
T1 construct: expressed in transfected cells; host or cells: Saccharomyces cerevisiae K667-derived strain
T1 sequence (Q08853 1-1228 S769N): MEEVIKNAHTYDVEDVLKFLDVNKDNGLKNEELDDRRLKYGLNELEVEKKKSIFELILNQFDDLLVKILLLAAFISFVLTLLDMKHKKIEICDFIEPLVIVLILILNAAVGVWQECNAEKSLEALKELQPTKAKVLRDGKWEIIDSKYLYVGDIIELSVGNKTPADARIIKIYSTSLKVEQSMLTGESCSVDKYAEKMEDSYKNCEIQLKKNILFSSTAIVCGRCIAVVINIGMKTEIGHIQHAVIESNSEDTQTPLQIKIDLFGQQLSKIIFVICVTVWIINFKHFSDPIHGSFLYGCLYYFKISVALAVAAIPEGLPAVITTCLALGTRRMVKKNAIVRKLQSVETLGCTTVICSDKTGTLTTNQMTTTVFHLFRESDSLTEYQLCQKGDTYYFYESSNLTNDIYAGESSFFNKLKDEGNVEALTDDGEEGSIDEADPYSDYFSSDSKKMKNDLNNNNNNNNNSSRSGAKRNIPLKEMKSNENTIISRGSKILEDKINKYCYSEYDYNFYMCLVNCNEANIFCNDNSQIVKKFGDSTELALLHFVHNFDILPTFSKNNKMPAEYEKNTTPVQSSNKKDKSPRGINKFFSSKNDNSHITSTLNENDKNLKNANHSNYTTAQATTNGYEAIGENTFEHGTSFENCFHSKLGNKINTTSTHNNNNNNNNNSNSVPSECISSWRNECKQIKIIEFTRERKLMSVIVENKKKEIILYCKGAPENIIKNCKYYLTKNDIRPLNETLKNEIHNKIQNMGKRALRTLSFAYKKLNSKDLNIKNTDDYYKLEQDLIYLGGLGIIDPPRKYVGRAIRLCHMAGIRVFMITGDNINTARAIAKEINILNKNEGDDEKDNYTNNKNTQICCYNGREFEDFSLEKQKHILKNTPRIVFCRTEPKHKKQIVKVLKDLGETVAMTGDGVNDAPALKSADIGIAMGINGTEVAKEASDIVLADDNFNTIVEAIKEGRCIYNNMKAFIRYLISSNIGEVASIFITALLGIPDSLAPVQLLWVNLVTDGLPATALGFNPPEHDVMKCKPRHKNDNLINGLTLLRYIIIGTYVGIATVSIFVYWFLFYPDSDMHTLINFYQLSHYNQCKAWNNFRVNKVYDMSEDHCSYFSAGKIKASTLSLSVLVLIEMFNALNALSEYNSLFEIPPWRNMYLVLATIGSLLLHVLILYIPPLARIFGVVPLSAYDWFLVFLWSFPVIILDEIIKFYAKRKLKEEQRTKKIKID
As to the kind of experiment: Yeast whole-cell assay, PfATP6 S769N mutant. Format: cell-based. The conditions noted are these: read-out: IC50 (mean ± SD). Here is the method:
Yeast transformations were performed using the method described by Gietz and Schiestl ([48]), and transformants were selected by an uracil auxotrophic marker. Transformations were confirmed by colony PCR. Both K667 and K667Δpdr5::HIS were transformed with the following plasmids: pUGpd plasmid as a vector-only control (derived from pRS316 [49]); br434 plasmid (derived from pRS316 [50]) containing the SERCA1a coding region from rabbit skeletal fast-twitch muscle (pbr434-SERCA1a); and pUGpd containing the yeast-optimized coding region of PfATP6 from Plasmodium falciparum (pUGpd-PfATP6). Site-directed mutagenesis was performed on the SERCA1a coding region to produce the mutation E255L in the protein. Mutations were also introduced into the PfATP6 coding region to produce mutations L263E, A623E, and S769N and the double mutation A623E/S769N ([13]).
The screening assay used here was developed from the protocol used by Pulcini et al. ([13]). […] The optimal calcium concentration was periodically monitored and, if necessary, adjusted using a calcium concentration range of 10 to 30 mM. […] The yeast growth was estimated from the absorbance at 620 nm in a Tecan plate reader. […] The data collected were analyzed using GraphPad Prism v9.0 (GraphPad software, San Diego, CA, U.S.A).

SMILES strings stand for the structures.

As usually defined, the IC50 is the concentration at which inhibition is half-maximal.

As to `CC(=O)C1=C(O)[C@@H]2[C@H]3c4c[nH]c5cccc(c45)C[C@H]3C(C)(C)N2C1=O` [CPA, cyclopiazonic acid], the half-inhibitory concentration (IC50) came to 6.49 µM.

Values taken from paper PMC9112895, “Selective Inhibition of Plasmodium falciparum ATPase 6 by Artemisinins and Identification of New Classes of Inhibitors after Expression in Yeast” (Antimicrobial Agents and Chemotherapy, 2022).
